US7064120B2, “Tricyclic pyridyl carboxamides and derivatives thereof tocolytic oxytocin receptor antagonists” (Wyeth, priority 2001, dated 2006)

Target: T1, human vasopressin V1a receptor subtype (Homo sapiens, UniProt P37288)
T1 construct: host or cells: CHO cells, stably transfected (pZeoSV vector for the Thibonnier line)
Test: Vasopressin binding in CHO cell membranes expressing human vasopressin V1a subtype receptors ([3H]Manning ligand radioligand binding)
Conditions: 100 nM
In short: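 Membranes from CHO cells expressing human V1a, 25–50 μg protein/well, incubated 60 min at room temperature with [3H]Manning ligand (20 μL of 8 nM stock) in 50 mM Tris-HCl pH 7.4 with BSA, MgCl2 and protease inhibitors. Filtration then scintillation counting; reported as % inhibition or IC50 (nM).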

T1 sequence (P37288 whole entry): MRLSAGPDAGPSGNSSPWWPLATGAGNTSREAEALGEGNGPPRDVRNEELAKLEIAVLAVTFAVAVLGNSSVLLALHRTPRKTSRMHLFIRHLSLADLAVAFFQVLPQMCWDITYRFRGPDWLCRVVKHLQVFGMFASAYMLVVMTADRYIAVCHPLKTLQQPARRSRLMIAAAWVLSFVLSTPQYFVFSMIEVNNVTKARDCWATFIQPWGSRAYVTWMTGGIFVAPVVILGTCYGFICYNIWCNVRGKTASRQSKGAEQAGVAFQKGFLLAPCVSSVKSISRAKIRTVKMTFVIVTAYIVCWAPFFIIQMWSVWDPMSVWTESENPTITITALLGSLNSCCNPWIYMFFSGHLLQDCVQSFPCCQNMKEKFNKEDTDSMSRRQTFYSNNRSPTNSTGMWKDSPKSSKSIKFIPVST

Row | Compound | inhibition at 0.1 µM
1 | COc1cc(C(=O)N2Cc3ccc(C(=O)N4CCN(c5ccccn5)CC4)n3Cc3ccccc32)ccc1-c1ccccc1C [Example 80, {10-[(2-Methoxy-2′-methyl-[1,1′-biphenyl]-4-yl)carbonyl]-10,11-dihydro-5H-pyrrolo[2,1-c][1,4]benzodiazepin-3-yl}[4-(2-pyridinyl)-1-piperazinyl]methanone] | 6%
2 | COc1cc(-c2ccccc2C)c(Cl)cc1C(=O)N1Cc2ccc(C(=O)N3CCN(c4ccccn4)CC3)n2Cc2ccccc21 [Example 81, {10-[(6-Chloro-3-methoxy-2′-methyl-[1,1′-biphenyl]-4-yl)carbonyl]-10,11-dihydro-5H-pyrrolo[2,1-c][1,4]benzodiazepin-3-yl}[4-(2-pyridinyl)-1-piperazinyl]methanone] | -6%
3 | COc1cccc(-c2cc(OC)c(C(=O)N3Cc4ccc(C(=O)N5CCN(c6ccccn6)CC5)n4Cc4ccccc43)cc2Cl)c1 [Example 82, {10-[(6-Chloro-3,3′-dimethoxy-[1,1′-biphenyl]-4-yl)carbonyl]-10,11-dihydro-5H-pyrrolo[2,1-c][1,4]benzodiazepin-3-yl}[4-(2-pyridinyl)-1-piperazinyl]methanone] | -1%
4 | COc1ccccc1-c1ccc(C(=O)N2Cc3ccc(C(=O)N4CCN(c5ccccn5)CC4)n3Cc3ccccc32)cc1OC [Example 84, {10-[(2,2′-Dimethoxy-[1,1′-biphenyl]-4-yl)carbonyl]-10,11-dihydro-5H-pyrrolo[2,1-c][1,4]benzodiazepin-3-yl}[4-(2-pyridinyl)-1-piperazinyl]methanone] | 3%
5 | COc1cccc(-c2ccc(C(=O)N3Cc4ccc(C(=O)N5CCN(c6ccccn6)CC5)n4Cc4ccccc43)cc2OC)c1 [Example 85, {10-[(2,3′-Dimethoxy-[1,1′-biphenyl]-4-yl)carbonyl]-10,11-dihydro-5H-pyrrolo[2,1-c][1,4]benzodiazepin-3-yl}[4-(2-pyridinyl)-1-piperazinyl]methanone] | -5%
6 | O=C(c1ccc2n1Cc1ccccc1N(C(=O)c1ccc(-c3cccc4ccccc34)cc1Cl)C2)N1CCN(c2ccccn2)CC1 [Example 86, {10-[2-Chloro-4-(naphthalen-1-yl)benzoyl]-10,11-dihydro-5H-pyrrolo[2,1-c][1,4]benzodiazepin-3-yl}[4-(2-pyridinyl)-1-piperazinyl]methanone] | 1%
7 | Cc1cc(C(=O)N2Cc3ccc(C(=O)N4CCN(c5ccccn5)CC4)n3Cc3ccccc32)ccc1-c1ccccc1C(F)(F)F [Example 87, (10-{[2-Methyl-2′-trifluoromethyl-[1,1′-biphenyl]-4-yl]carbonyl}-10,11-dihydro-5H-pyrrolo[2,1-c][1,4]benzodiazepin-3-yl)[4-(2-pyridinyl)-1-piperazinyl]methanone] | 1%
8 | COc1ccccc1-c1ccc(C(=O)N2Cc3ccc(C(=O)NCc4ccncc4)n3Cc3ccccc32)cc1C [Example 88, 10-[(2′-Methoxy-2-methyl-[1,1′-biphenyl]-4-yl)carbonyl]-N-(4-pyridinylmethyl)-10,11-dihydro-5H-pyrrolo[2,1-c][1,4]benzodiazepine-3-carboxamide] | 8%
9 | Cc1ccccc1-c1ccc(C(=O)N2Cc3ccc(C(=O)NCc4ccncc4)n3Cc3ccccc32)cc1C [Example 89, 10-[(2,2′-Dimethyl-[1,1′-biphenyl]-4-yl)carbonyl]-N-(4-pyridinylmethyl)-10,11-dihydro-5H-pyrrolo[2,1-c][1,4]benzodiazepine-3-carboxamide] | 29%
10 | COc1cccc(-c2ccc(C(=O)N3Cc4ccc(C(=O)NCc5ccncc5)n4Cc4ccccc43)cc2C)c1 [Example 90, 10-[(3′-Methoxy-2-methyl-[1,1′-biphenyl]-4-yl)carbonyl]-N-(4-pyridinylmethyl)-10,11-dihydro-5H-pyrrolo[2,1-c][1,4]benzodiazepine-3-carboxamide] | 14%
11 | COc1ccccc1-c1ccc(C(=O)N2Cc3ccc(C(=O)NCc4ccncc4)n3Cc3ccccc32)cc1 [Example 91, 10-[(2′-Methoxy-[1,1′-biphenyl]-4-yl)carbonyl]-N-(4-pyridinylmethyl)-10,11-dihydro-5H-pyrrolo[2,1-c][1,4]benzodiazepine-3-carboxamide] | 11%
12 | Cc1ccccc1-c1ccc(C(=O)N2Cc3ccc(C(=O)NCc4ccncc4)n3Cc3ccccc32)cc1 [Example 92, 10-[(2′-Methyl-[1,1′-biphenyl]-4-yl)carbonyl]-N-(4-pyridinylmethyl)-10,11-dihydro-5H-pyrrolo[2,1-c][1,4]benzodiazepine-3-carboxamide] | 21%
13 | COc1cc(C(=O)N2Cc3ccc(C(=O)NCc4ccncc4)n3Cc3ccccc32)ccc1-c1ccccc1C [Example 93, 10-[(2-Methoxy-2′-methyl-[1,1′-biphenyl]-4-yl)carbonyl]-N-(4-pyridinylmethyl)-10,11-dihydro-5H-pyrrolo[2,1-c][1,4]benzodiazepine-3-carboxamide] | 50%
14 | COc1cc(-c2ccccc2C)c(Cl)cc1C(=O)N1Cc2ccc(C(=O)NCc3ccncc3)n2Cc2ccccc21 [Example 94, 10-[(6-Chloro-3-methoxy-2′-methyl-[1,1′-biphenyl]-4-yl)carbonyl]-N-(4-pyridinylmethyl)-10,11-dihydro-5H-pyrrolo[2,1-c][1,4]benzodiazepine-3-carboxamide] | 0%
15 | COc1cccc(-c2cc(OC)c(C(=O)N3Cc4ccc(C(=O)NCc5ccncc5)n4Cc4ccccc43)cc2Cl)c1 [Example 95, 10-[(6-Chloro-3,3′-dimethoxy-[1,1′-biphenyl]-4-yl)carbonyl]-N-(4-pyridinylmethyl)-10,11-dihydro-5H-pyrrolo[2,1-c][1,4]benzodiazepine-3-carboxamide] | 1%
16 | COc1cc(C(=O)N2Cc3ccc(C(=O)NCc4ccncc4)n3Cc3ccccc32)ccc1-c1cccc2ccccc12 [Example 96, 10-[3-Methoxy-4-(naphthalen-1-yl)benzoyl]-N-(4-pyridinylmethyl)-10,11-dihydro-5H-pyrrolo[2,1-c][1,4]benzodiazepine-3-carboxamide] | 7%
17 | COc1ccccc1-c1ccc(C(=O)N2Cc3ccc(C(=O)NCc4ccncc4)n3Cc3ccccc32)cc1OC [Example 97, 10-[(2,2′-Dimethoxy-[1,1′-biphenyl]-4-yl)carbonyl]-N-(4-pyridinylmethyl)-10,11-dihydro-5H-pyrrolo[2,1-c][1,4]benzodiazepine-3-carboxamide] | 4%
18 | O=C(NCc1ccncc1)c1ccc2n1Cc1ccccc1N(C(=O)c1ccc(-c3cccc4ccccc34)cc1Cl)C2 [Example 99, 10-[2-Chloro-4-(naphthalen-1-yl)benzoyl]-N-(4-pyridinylmethyl)-10,11-dihydro-5H-pyrrolo[2,1-c][1,4]benzodiazepine-3-carboxamide] | -7%
19 | Cc1cc(C(=O)N2Cc3ccc(C(=O)NCc4ccncc4)n3Cc3ccccc32)ccc1-c1ccccc1C(F)(F)F [Example 100, 10-{[2-Methyl-2′-trifluoromethyl-[1,1′-biphenyl]-4-yl]carbonyl}-N-(4-pyridinylmethyl)-10,11-dihydro-5H-pyrrolo[2,1-c][1,4]benzodiazepine-3-carboxamide] | 10%
